From patent publication US10100048B2, “Heterocyclic compounds and their use as glycogen synthase kinase-3 inhibitors” (AbbVie Deutschland GmbH & Co. KG, priority 2010, dated 2018)
Structures can show the parent of a compound that is named as a salt.

Target: human Glycogen Synthase Kinase-3 beta (hGSK-3β) (Homo sapiens (Human), UniProt P49841)
Experiment: Biochemical hGSK-3Beta Assay (33P-ATP phosphorylation of biotinylated peptide substrate, Flash-plate)
Settings: 0.0125 U hGSK-3β, 10 μM ATP, 1 μM substrate, 30 minutes at room temperature; read-out: GSK-3β IC50
Method: Methods—Biochemical hGSK-3Beta Assay
Compounds were tested for their ability to inhibit human Glycogen Synthase Kinase-3 beta (hGSK-3β) to phosphorylate biotin-[…](pS)EDEEE. Compounds were incubated with 0.5 μCi 33P-ATP, 10 μM ATP, 0.0125 U hGSK-3β (Upstate cell signaling solutions) and 1 μM substrate (biotin-[…](pS)EDEEE) in 50 mM HEPES, 10 mM MgCl2, […], 1 mM DTT, 0.0075% Triton, 2% DMSO (total volume 50 μL) for 30 minutes at room temperature. The incubation was stopped by addition of an equal volume of 100 mM EDTA, 4M NaCl. 80 μL of this mixture was added to streptavidin-coated Flash-plates (PerkinElmer). Following a wash step, 33P incorporation was quantified on a MicroBeta microplate liquid scintillation counter (Perkin Elmer). IC50s were determined by fitting a sigmoidal dose-response curve to the counts obtained at the different concentrations in GraphPad Prism.

Sequence of human Glycogen Synthase Kinase-3 beta (hGSK-3β) (P49841 whole entry): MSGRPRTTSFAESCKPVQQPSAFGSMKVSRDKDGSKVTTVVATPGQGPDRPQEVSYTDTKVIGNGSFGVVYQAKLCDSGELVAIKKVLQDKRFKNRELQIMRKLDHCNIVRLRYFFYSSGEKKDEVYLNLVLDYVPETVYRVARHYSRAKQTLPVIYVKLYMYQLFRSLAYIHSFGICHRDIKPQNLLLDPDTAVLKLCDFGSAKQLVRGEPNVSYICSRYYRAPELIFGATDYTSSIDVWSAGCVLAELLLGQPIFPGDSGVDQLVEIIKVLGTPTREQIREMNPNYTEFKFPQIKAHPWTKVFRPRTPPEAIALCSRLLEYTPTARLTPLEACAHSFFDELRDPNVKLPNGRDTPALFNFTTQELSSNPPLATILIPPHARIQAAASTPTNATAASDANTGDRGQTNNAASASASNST

## CC(C)(C)OC(=O)N1CCc2nc(C3C(=O)Nc4ccc(C#N)cc43)ccc2C1 (centres unmarked) [Example 2.2, tert-Butyl 2-(5-cyano-2-oxoindolin-3-yl)-7,8-dihydro-1,6-naphthyridine-6(5H)-carboxylate]
  IC50: < 100 nM

## N#Cc1ccc2c(c1)C(c1ccc3c(n1)CCNC3)C(=O)N2 (centres unmarked) [Example 2, 2-Oxo-3-(5,6,7,8-tetrahydro-1,6-naphthyridin-2-yl)indoline-5-carbonitrile]
  IC50: < 100 nM

## N#Cc1ccc2c(c1)C(c1ccc3c(n1)CCCC3O)C(=O)N2 (centres unmarked) [Example 1, 3-(5-Hydroxy-5,6,7,8-tetrahydroquinolin-2-yl)-2-oxoindoline-5-carbonitrile]
  IC50: < 100 nM

## N#Cc1ccc2c(c1)C(c1ccc3c(n1)CNC3)C(=O)N2 (centres unmarked) [Example 5, 3-(6,7-Dihydro-5H-pyrrolo[3,4-b]pyridin-2-yl)-2-oxoindoline-5-carbonitrile hydrochloride]
  IC50: < 100 nM

## COC1CCCc2nc(C3C(=O)Nc4ccc(C#N)cc43)ccc21 (centres unmarked) [Example 6, 3-(5-Methoxy-5,6,7,8-tetrahydroquinolin-2-yl)-2-oxoindoline-5-carbonitrile]
  IC50: < 100 nM
